Assay results published in patent US10323018B2 (Millennium Pharmaceuticals, Inc., priority 2015, dated 2019).

What was measured:
hNAMPT protein = hNAMPT protein (Homo sapiens (Human), UniProt P43490); assay: NAMPT enzyme assay (TR-FRET/HTRF with BodiPY ligand); assay type: binding; settings: for inhibition at 1 µM: NAMPT inhibition at compound concentration 1 μM, read-out: Percent Inhibition; for IC50: NAMPT inhibition, IC50 range class
Summary of the method: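 His-tagged hNAMPT with anti-6His-Tb, incubated with compound and BodiPY ligand for 1 h at rt in the dark, in Tris-HCl pH 7.5 buffer with DTT, NaCl, MgCl2 and Tween 20. TR-FRET measured with 320 nm excitation as the 520/486 nm emission ratio. IC50 fitted relative to DMSO controls.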

PC3 cells = assay: PC3 growth inhibition (Cell-titer glo, 72 hours); assay type: cell-based; settings: Homo sapiens, PC-3, 72 h, read-out: Percent Viability, PC3 cells, compound concentration 1.667 μM, 72 hours
Summary of the method: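 PC3 cells grown in RPMI1640 plated at 8×10^4 cells/ml, incubated overnight, then exposed to compound diluted in AIM serum-free medium for 72 h at 37 °C, 5% CO2. Luminescence by CellTiter-Glo relative to DMSO controls; % viability at single concentration, GI50 or LD50 from concentration-response curves.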

hNAMPT protein, sequence (P43490 whole entry): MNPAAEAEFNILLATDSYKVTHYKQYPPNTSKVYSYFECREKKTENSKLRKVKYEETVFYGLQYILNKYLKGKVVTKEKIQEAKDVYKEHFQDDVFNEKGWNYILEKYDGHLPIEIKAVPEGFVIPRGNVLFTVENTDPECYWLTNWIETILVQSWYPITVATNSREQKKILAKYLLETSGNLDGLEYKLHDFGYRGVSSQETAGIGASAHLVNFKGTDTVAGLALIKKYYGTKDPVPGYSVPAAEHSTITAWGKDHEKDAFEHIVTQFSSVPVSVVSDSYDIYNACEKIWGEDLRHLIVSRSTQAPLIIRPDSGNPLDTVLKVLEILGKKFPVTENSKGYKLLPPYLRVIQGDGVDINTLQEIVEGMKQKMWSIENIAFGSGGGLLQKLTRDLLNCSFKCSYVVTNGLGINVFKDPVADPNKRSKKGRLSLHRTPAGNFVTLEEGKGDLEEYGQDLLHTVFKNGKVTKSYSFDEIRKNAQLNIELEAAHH

Row | SMILES | inhibition at 1 µM (hNAMPT protein) | IC50 (hNAMPT protein) | viability at 1.667 µM (PC3 cells)
1 | CCOc1cc(-c2cccc(OC(F)(F)F)c2)nc2cc(C(=O)NCCCc3nnc[nH]3)ccc12 [Compound I-216, 4-ethoxy-N-[3-(4H-1,2,4-triazol-3-yl)propyl]-2-[3-(trifluoromethoxy)phenyl]quinoline-7-carboxamide] | 92% | 50 to 100 nM | 1%
2 | CCOc1cc(-c2ccc(C(F)(F)F)nc2)nc2cc(C(=O)NCCCc3nnc[nH]3)ccc12 [Compound I-217, 4-ethoxy-N-[3-(4H-1,2,4-triazol-3-yl)propyl]-2-[6-(trifluoromethyl)pyridin-3-yl]quinoline-7-carboxamide] | 94% | 10 to 50 nM | 2%
3 | CCOc1cc(-c2ccnc(C(F)(F)F)c2)nc2cc(C(=O)NCCCc3nnc[nH]3)ccc12 [Compound I-218, 4-ethoxy-N-[3-(4H-1,2,4-triazol-3-yl)propyl]-2-[2-(trifluoromethyl)pyridin-4-yl]quinoline-7-carboxamide] | 93% | 50 to 100 nM | 2%
4 | CCOc1cc(-c2ccc(F)cc2)nc2cc(C(=O)NCCCc3nnc(N)[nH]3)ccc12 [Compound I-220, N-[3-(5-amino-4H-1,2,4-triazol-3-yl)propyl]-4-ethoxy-2-(4-fluorophenyl)quinoline-7-carboxamide] | 92% | 50 to 100 nM | 2%
5 | CCOc1cc(-c2ccc(F)cc2)nc2cc(C(=O)NCCc3nn[nH]n3)ccc12 [Compound I-221, 4-ethoxy-2-(4-fluorophenyl)-N-[2-(2H-tetrazol-5-yl)ethyl]quinoline-7-carboxamide] | 53% | > 100 nM | 89%
6 | CCOc1cc(-c2ccc(F)cc2)nc2cc(C(=O)N[C@H]3C[C@@H](c4nnc[nH]4)C3)ccc12 [Compound I-222, 4-ethoxy-2-(4-fluorophenyl)-N-[cis-3-(4H-1,2,4-triazol-3-yl)cyclobutyl]quinoline-7-carboxamide] | 96% | 10 to 50 nM | 4%
7 | CCOc1cc(-c2ccc(C)s2)nc2cc(C(=O)NCCCc3nnc[nH]3)ccc12 [Compound I-223, 4-ethoxy-2-(5-methyl-2-thienyl)-N-[3-(4H-1,2,4-triazol-3-yl)propyl]quinoline-7-carboxamide] | > 99% | 10 to 50 nM | 3%
8 | CCOc1cc(-c2ccc(F)cc2)nc2cc(C(=O)NCCCc3cncn3C)ccc12 [Compound I-224, 4-ethoxy-2-(4-fluorophenyl)-N-[3-(1-methyl-1H-imidazol-5-yl)propyl]quinoline-7-carboxamide] | > 99% | < 10 nM | 2%
9 | CCOc1cc(-c2cc(OC)ncc2F)nc2cc(C(=O)NCCCc3nnc[nH]3)ccc12 [Compound I-225, 4-ethoxy-2-(5-fluoro-2-methoxypyridin-4-yl)-N-[3-(4H-1,2,4-triazol-3-yl)propyl]quinoline-7-carboxamide] | 97% | 10 to 50 nM | 2%
10 | CCCc1cc(OCC)c2ccc(C(=O)NCCCc3ncc[nH]3)cc2n1 [Compound I-226, N-(3-(1H-imidazol-2-yl)propyl)-4-ethoxy-2-propylquinoline-7-carboxamide] | 86% | > 100 nM | 14%
11 | CCOc1cc(-c2ccc(F)cc2)nc2cc(C(=O)NCCCc3ccc(C)nc3)ccc12 [Compound I-227, 4-ethoxy-2-(4-fluorophenyl)-N-[3-(6-methylpyridin-3-yl)propyl]quinoline-7-carboxamide] | 100% | < 10 nM | 6%
12 | CCOc1cc(-c2ccc(F)cc2)nc2cc(C(=O)NCCCc3cncnc3)ccc12 [Compound I-228, 4-ethoxy-2-(4-fluorophenyl)-N-[3-(pyrimidin-5-yl)propyl]quinoline-7-carboxamide] | 94% | < 10 nM | 5%
13 | O=C(NCCCc1ncc[nH]1)c1ccc2c(OCCO)cc(-c3ccc(F)cc3)nc2c1 [Compound I-229, 2-(4-fluorophenyl)-4-(2-hydroxyethoxy)-N-[3-(1H-imidazol-2-yl)propyl]quinoline-7-carboxamide] | 99% | < 10 nM | 2%
